Literature values, collected in PMC5937704 (Biochemistry, 2018).

Experiments:
[1] = system: bromodomain 1 (BD1) of TAF1
[2] = system: bromodomain 2 (BD2) of TAF1

CCOC(=O)Nc1cc(-c2ccc(C)c(NS(C)(=O)=O)c2)nn2c(C)nnc12 [BSP, Bromosporine]
affinity for BD1 of TAF1 [1]: significantly weaker (micromolar) affinity | affinity for BD2 of TAF1 [2]: nanomolar affinity
